From patent US6984659B2, “2-pyrrolidinone derivatives substituted at position 4 for reducing the extracellular glutamate level” (priority 1997, dated 2006)
Values joined by “and” are separate entries in the source; they are usually repeats but may differ in a detail not shown here. Equal entries are not always repeated.

Columns and labels:
[1] = tested on: ischemia-induced [^3H]-Glu release; test: in vitro ischemia model: ischemia-induced [^3H]-Glu release from [^3H]-Gln-loaded hippocampal slices; type: cell-based, rat
Description: Rat hippocampus slices 350 μm thick were incubated in 3 ml of medium at 37° C. for 60 minutes. The medium contained 2 μM [^3H]-Gln to label the endogenous Gln pool. The slices then synthesized Glu. The slices were washed and then exposed to superfusion with a buffer for 50 minutes. At 5-minute intervals, [^3H]-Glu was extracted by anion exchange chromatography from a total of 15 superfusion samples and was measured by liquid scintillation counting. The fractional rates of [^3H]-Glu release were calculated from the [^3H]-Glu extracted from the superfusion samples and from the tissue slices after the superfusion.
The model of endogenously produced [^3H]-Glu was likewise used to generate ischemic conditions in vitro. To make a slice “quasi ischemic”, oxygen and glucose were replaced by nitrogen and sucrose during the superfusion. Sucrose was used in place of […] glucose in order to maintain the osmolarity of the superfusion fluid. It is known that sucrose cannot be cleaved in vitro to glucose and fructose. Unlike the tests in which the [^3H]-Glu release was induced electrically, and in order to simulate an ischemia as well as possible, the [^3H]-Glu release was carried out during the incubation and superfusion at 37° C.
Slices of 350 μm thickness were incubated at 37° C. for 60 min in 3 ml medium containing 2 μM [^3H]-Gln in order to label endogenous Gln pools. These slices subsequently were synthesizing Glu. The slices were washed and then superfused for 50 min with buffer. [^3H]-Glu was extracted from 15 5-min-superfusion samples and from the slices by anion-exchange chromatography and measured by liquid scintillation counting. Fractional rates of [^3H]-Glu release were calculated from extracted [^3H]-Glu in the superfusion samples and in the tissue slices obtained after superfusion.
To reproduce in vitro ischemic conditions the model of endogenously formed [^3H]-Glu was also used. To make a slice “quasi-ischemic”, oxygen was replaced by nitrogen and glucose was replaced by sucrose during superfusion. Sucrose was used instead of glucose in order to maintain the osmolarity of the superfusion fluid without being cleaved into glucose and fructose in vitro. At variance to the experiments on electrically evoked [^3H]-Glu release and in order to mimic ischemia as close as possible the experiments on ischemia-induced [^3H]-Glu release were performed at 37° C. throughout incubation and superfusion.
To assess the potency of glibenclamide concentration-inhibition curves of GBP-L on ischemia-induced [^3H]-Glu efflux were obtained in the absence and presence of 0.1 μM glibenclamide (see Jehle et al. 2000).

[2] = tested on: potassium-evoked release of [^3H]-noradrenaline; test: potassium-evoked release of [^3H]-noradrenaline from rat neocortex slices (superfusion); type: cell-based; settings: rat neocortical slices
Source text: (§1) The effects of GBP and GBP-L were compared by a very similar approach using rat and human neocortical slices.
(§2) Note that the deviations indicate confidence intervals (CI95), not standard errors.

[3] = tested on: potassium-evoked release of [^3H]-noradrenaline; test: potassium-evoked release of [^3H]-noradrenaline from human neocortical slices (superfusion); type: cell-based; settings: human neocortex slices
Source text: as §1, §2

[4] = tested on: electrically evoked release of [^3H]-NA; test: electrically evoked release of [^3H]-NA from rat brain slices; type: cell-based; settings: quasi-physiological release
Source text: Note that the deviations indicate confidence intervals (CI95), not standard errors. In this model, GBP and its lactam seem equipotent. GBP and GBP-L are ineffective on the quasi-physiological, electrically evoked release of [^3H]-NA from both rat and human brain slices (not shown).

[5] = tested on: Mice transgenic for exon 1 of the human HD gene (line R 6/2); test: mouse model of Huntington's disease, walking on a balance beam; type: in vivo
Source text: (§3) Mice transgenic for exon 1 of the human HD gene (line R 6/2), carrying CAGn=115-156 expansions, develop pronounced neuronal intranuclear inclusions, containing the proteins huntington and ubiquitin prior to the characteristic neurological phenotype with bradykinesia and seizures corresponding to the juvenile type of HD (Davies et al. 1997). The life time of these mice is up to 17 weeks. It was investigated whether gabapentin (GBP) and its derivative gabapentin-lactam (GBP-L, Jehle et al. 2000), may exert neuroprotective effects by using a battery of behavioral tests selected to measure motor aspects of fore-and hindlimb coordination and balance. In a first series of experiments mice were treated with GBP-L (100 mg/kg*day, 8 mice) and vehicle only (B mice) from the 6th week of their life until death using Alzet pumps implanted subcutaneously and delivering the test compounds systemically and continuously for up to four weeks. Empty Alzet pumps were repeatedly replaced. Animals were tested twice weekly by walking on a balance beam (width: 5 and 14 mm, Carter et al. 1999) up to week 15.5. A second series of experiments involved mice again treated with GBP-L (100 mg/kg*clay, 7 mice) and mice treated with GBP (100 mg/kg*day, 8 mice) from the 6th week of their life until death with week 17 being the maximum endpoint. In addition, immunohistochemical studies, using a monoclonal mouse antibody raised against ubiquitin, were done to analyse areas of ubiquitinated nuclear inclusions in three brain regions (hippocampus, neocortex and striatum) in a blinded fashion in order to compare mice treated with GBP-L or GBP.
This effect (E), as measured by the time necessary to pass the balance beam, was evaluated in each single mouse according to the function E=be^a time, yielding individual graphs with parameter estimates for a and b. The area under the curve, representing the motor ability of an individual mouse, was weighted by the life of this mouse. For instance, the area under the curve of a mouse which died at week 12.5 was divided by the ratio 12.5/15.5 in order to allow for possibly different life times of the mice.
Note that the observation period of the second series of experiments was 17 instead of 15.5 weeks only in the first set. Accordingly, the weighting by the life time now used the divisor 17 Instead of 15.5.

[6] = tested on: neuronal intranuclear inclusions; test: mouse model of Huntington's disease, immunohistochemistry of ubiquitinated neuronal intranuclear inclusions; type: in vivo; settings: for mean hippocampal areas of neuronal intranuclear inclusions / mean neocortical areas of neuronal intranuclear inclusions / mean striatal areas of neuronal intranuclear inclusions: per individual mouse, 100 mg/kg*day, frozen brain sections, 100 mg/kg
Source text: as §3
Three mice per group were evaluated. The mean regional area of neuronal intranuclear inclusions was calculated (μm^2) for each mouse. These means were compared between regions and between treatment groups.

[7] = second series, 100 mg/kg*day, observation period 17 weeks
[8] = O2 replaced by N2, glucose by sucrose, 37° C., 3 μM PDC

| SMILES | diminution of ischemia-induced [^3H]-Glu efflux [1] | K^+-evoked [^3H]-NA release (in words) [2] | K^+-evoked [^3H]-NA release (in words) [3] | electrically evoked release of [^3H]-NA (in words) [4] | mean weighted area representing the motor ability on the 5 mm beam [5, 7] | mean weighted area representing the motor ability on the 14 mm beam [5, 7] | mean hippocampal areas of neuronal intranuclear inclusions [6] | mean neocortical areas of neuronal intranuclear inclusions [6] | mean striatal areas of neuronal intranuclear inclusions [6] | ischemia-induced [^3H]-Glu output (in words) [1, 8] | reduction of ischemia-induced [^3H]-Glu release (area from t=15 min) [1, 8] | motor abilities compared to vehicle animals (in words) ([5]; first series, 100 mg/kg*day) | mean weighted area representing the motor ability on the 5 mm beam ([5]; first series, 100 mg/kg*day s.c. Alzet pumps from 6th week, up to week 15.5, vehicle 44.60) | mean weighted area representing the motor ability on the 14 mm beam ([5]; first series, 100 mg/kg*day, up to week 15.5, vehicle 31.54) | area of neuronal intranuclear inclusions in hippocampus, striatum and neocortex compared to GBP mice (in words) ([6]; three mice per group) |
| --- | --- | --- | --- | --- | --- | --- | --- | --- | --- | --- | --- | --- | --- | --- | --- |
| NCC1(CC(=O)O)CCCCC1 [GBP, gabapentin, reference compound] | 35.5% | inhibited similarly | inhibited similarly | ineffective | 77.33 | 65.71 | 8.78 μm^2 and 8.93 μm^2 and 8.26 μm^2 | 5.91 μm^2 and 5.94 μm^2 and 9.60 μm^2 | 6.43 μm^2 and 7.27 μm^2 and 3.84 μm^2 | – | – | – | – | – | – |
| O=C1CC2(CCCCC2)CN1 [GBP-L, 8-azaspiro[5,4]decan-9-one] | – | inhibited similarly | inhibited similarly | ineffective | 43.75 | 30.46 | 4.47 μm^2 and 4.01 μm^2 and 3.61 μm^2 | 3.70 μm^2 and 2.96 μm^2 and 2.65 μm^2 | 3.52 μm^2 and 4.20 μm^2 and 3.83 μm^2 | reduces the neurotoxic [^3H]-Glu output significantly | 42.5% | markedly and significantly improved | 26.64 | 17.16 | markedly and significantly reduced |
